Assay results as given in patent US20230102488A1, “COMPOUNDS AND THEIR USE FOR THE TREATMENT OF ALPHA1-ANTITRYPSIN DEFICIENCY” (Z Factor Limited, priority 2019, published 2023).
Like-named read-outs stand apart in the source and are kept apart here.

Target: T1, Z A1AT (Homo sapiens, UniProt P01009, E366K)
T1 construct: expressed in transfected cells; host or cells: HEK-Z cells (human embryonic kidney cell line)
Assay: A1AT cell secretion assay using HEK-Z cells (A1AT ELISA of supernatants)
Format: cell-based
Settings: 48 h, read-out: Median A1AT % increase over vehicle at 300 nM
Protocol: HEK-Z cells, a human embryonic kidney cell line stably transfected with the human Z A1AT gene, were plated into 96 well plates (3.0×10^5 cells/ml with 200 μl of media/well) overnight at 37° C. in a humidified atmosphere containing 5% CO2. Following incubation cells were washed with 200 μl serum-free media three times and media was replaced with treatments in quadruplicate using serum free media containing either vehicle, 10 μM suberanilohydroxamic acid (SAHA) or a compound of the invention ([…]) for 48 h in a 37° C. incubator in a final volume of 200 μl. At the end of the incubation step the supernatants were removed from the wells, centrifuged at 1000×g at 4° C. for 10 min and were assayed for human A1AT levels by ELISA (Human Serpin A1/α1-antitrypsin duo set ELISA, R& D Systems, DY1268) per manufacturer's instructions.
Briefly, a 96 well plate was coated with human A1AT capture antibody overnight at room temperature (1:180 dilution from stock, 100 μl final volume/well). The capture antibody was then removed and wells washed three times with 300 μl wash buffer (0.05% Tween 20 in PBS) and then 200 μl reagent diluent ([…]) was incubated in each well for 1 h at room temperature. Diluted samples, standards (125, 250, 500, 1000, 2000, 4000 and 8000 pg/ml A1AT) or blanks were then added to each well in duplicate and the plates were covered with a plate sealer and left at room temperature for 2 h. At the end of the sample incubation step, samples were removed and all wells washed as previously and 100 μl detection antibody (1:180 dilution from stock) was added to each well and incubated for a further 2 h at room temperature. Following incubation with detection antibody, supernatant was removed and wells were washed as previously and 100 μl streptavidin-HRP solution (1:200 dilution from stock) was added to each well for 20 min in the dark. After which, 50 μl stop solution (2M H2SO4) was added and optical density (OD) of each well was read at 450 nm with 570 nm blank subtracted from each well using a microplate reader. A 4 parameter logistic curve was constructed using GraphPad Prism 7 and A1AT concentrations were determined in each sample by interpolation from a standard curve and multiplying by the appropriate dilution factor.

[1] = HEK-Z cells, 300 nM, secreted human A1AT in supernatant by ELISA

T1 sequence (P01009 25-418 E366K): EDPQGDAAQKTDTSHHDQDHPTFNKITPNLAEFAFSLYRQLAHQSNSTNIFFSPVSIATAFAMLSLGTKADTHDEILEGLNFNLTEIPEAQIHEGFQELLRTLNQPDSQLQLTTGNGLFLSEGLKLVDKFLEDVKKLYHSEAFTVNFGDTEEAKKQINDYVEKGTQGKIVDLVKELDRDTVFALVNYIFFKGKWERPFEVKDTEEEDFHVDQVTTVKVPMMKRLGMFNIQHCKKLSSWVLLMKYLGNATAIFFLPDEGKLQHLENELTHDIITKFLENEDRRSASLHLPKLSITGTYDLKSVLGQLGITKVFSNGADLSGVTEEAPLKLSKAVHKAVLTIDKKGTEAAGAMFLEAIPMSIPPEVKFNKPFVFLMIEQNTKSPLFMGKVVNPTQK

Row | Compound | activation at 0.3 µM [1] [%] | activation at 0.3 µM [%]
1 | O=C(NCc1ccc(F)cc1)c1ccc(Cn2cnccc2=O)cc1 [Example 13, N-(4-fluorobenzyl)-4-((6-oxopyrimidin-1(6H)-yl)methyl)benzamide] | 190 | –
2 | CC(C)NC(=O)c1ccc(Cn2cnccc2=O)cc1 [Example 12, N-isopropyl-4-((6-oxopyrimidin-1(6H)-yl)methyl)benzamide] | 210 | –
3 | CN(Cc1ccccc1)C(=O)c1ccc(Cn2cnccc2=O)cc1 [Example 8, N-benzyl-N-methyl-4-((6-oxopyrimidin-1(6H)-yl)methyl)benzamide] | 150 | –
4 | CN(CC(F)(F)F)C(=O)c1ccc(Cn2cnccc2=O)cc1 [Example 9, N-methyl-4-((6-oxopyrimidin-1(6H)-yl)methyl)-N-(2,2,2-trifluoroethyl)benzamide] | 170 | –
5 | CC(C)N(C)C(=O)c1ccc(Cn2cnccc2=O)cc1 [Example 7, N-isopropyl-N-methyl-4-((6-oxopyrimidin-1(6H)-yl)methyl)benzamide] | 160 | –
6 | O=C(c1ccc(Cn2cnccc2=O)cc1)N1CCCC1 [Example 2, 3-(4-(Pyrrolidine-1-carbonyl)benzyl)pyrimidin-4(3H)-one] | 350 | –
7 | O=C(c1ccc(Cn2cnccc2=O)cc1)N1CCOCC1 [Example 3, 3-(4-(Morpholine-4-carbonyl)benzyl)pyrimidin-4(3H)-one] | 280 | –
8 | CN(CC(F)(F)F)C(=O)c1ccc(Cn2cnc3ccccc3c2=O)cc1 [Example 17, N-methyl-4-((4-oxoquinazolin-3(4H)-yl)methyl)-N-(2,2,2-trifluoroethyl)benzamide] | – | 170
9 | CN(Cc1ccccc1)C(=O)c1ccc(Cn2cnc3ccccc3c2=O)cc1 [Example 16, N-benzyl-N-methyl-4-((4-oxoquinazolin-3(4H)-yl)methyl)benzamide] | – | 160
10 | CNC(=O)c1ccc(Cn2cnc3ccccc3c2=O)cc1 [Example 5, N-Methyl-4-((4-oxoquinazolin-3(4H)-yl)methyl)benzamide] | – | 180
11 | NC(=O)c1ccc(Cn2cnccc2=O)cc1 [Example 10, 4-((6-oxopyrimidin-1(6H)-yl)methyl)benzamide] | 260 | –
12 | CC(C)N(C)C(=O)c1ccc(Cn2cnc3ccccc3c2=O)cc1 [Example 15, N-isopropyl-N-methyl-4-((4-oxoquinazolin-3(4H)-yl)methyl)benzamide] | – | 190
13 | CCN(CC)C(=O)c1ccc(Cn2cnccc2=O)cc1 [Example 11, N,N-diethyl-4-((6-oxopyrimidin-1(6H)-yl)methyl)benzamide] | 230 | –
14 | Cc1ncn(Cc2ccc(C(=O)N(C)C)cc2)c(=O)c1C [Example 18, 4-((4,5-dimethyl-6-oxopyrimidin-1(6H)-yl)methyl)-N,N-dimethylbenzamide] | 170 | –
15 | O=C(NCC(F)(F)F)c1ccc(Cn2cnccc2=O)cc1 [Example 14, 4-((6-oxopyrimidin-1(6H)-yl)methyl)-N-(2,2,2-trifluoroethyl)benzamide] | 180 | –
16 | CCN(C)C(=O)c1ccc(Cn2cnccc2=O)cc1 [Example 1, N-Ethyl-N-methyl-4-((6-oxopyrimidin-1(6H)-yl)methyl)benzamide] | 330 | –
17 | CNC(=O)c1ccc(Cn2cnc3ccc(Cl)cc3c2=O)cc1 [Example 6, 4-((6-chloro-4-oxoquinazolin-3(4H)-yl)methyl)-N-methylbenzamide] | 200 | –
18 | CN1CCN(C(=O)c2ccc(Cn3cnccc3=O)cc2)CC1 [Example 4, 3-(4-(4-Methylpiperazine-1-carbonyl)benzyl)pyrimidin-4(3H)-one] | 390 | –
